Data: the NIST ThermoML archive (doi:10.1021/acs.jced.8b00452)
“And” between values parts separate entries of the source, which are not always exact repeats. Equal values may be shown once.

Details: isochoric method

C=CC(F)(F)F [1,1,1-trifluoro-2-propene]
Details	mass density [kg/m3]
328 K, 2263.6 kPa, Liquid	899.4
330 K, 1111.5 kPa, Gas	50
330 K, 3005.2 kPa, Liquid	899.2
333 K, 4120.1 kPa, Liquid	899
335 K, 4863.3 kPa, Liquid	898.9
338 K, 5981.5 kPa, Liquid	898.8
340 K, 1167.6 kPa, Gas	49.9
340 K, 6726 kPa, Liquid	898.7
348 K, 2175.9 kPa, Liquid	796.5
349 K, 2433.4 kPa, Liquid	796.4
350 K, 1222.4 kPa, Gas	49.9
350 K, 2692.4 kPa, Liquid	796.4
351 K, 2951.1 kPa, Liquid	796.4
352 K, 3211.8 kPa, Liquid	796.4
353 K, 3472 kPa, Liquid	796.3
354 K, 3732.3 kPa, Liquid	796.3
355 K, 2036.4 kPa, Gas	99.8
355 K, 3993.5 kPa, Liquid	796.3
356 K, 4255.7 kPa, Liquid	796.3
357 K, 4517.5 kPa, Liquid	796.2
358 K, 4781.3 kPa, Liquid	796.2
360 K, 1276.2 kPa, Gas	49.9
360 K, 2101.2 kPa, Gas	99.8
360 K, 5309.1 kPa, Liquid	796.2
362 K, 5836.4 kPa, Liquid	796.1
364 K, 2872 kPa, Fluid (supercritical or subcritical phases)	699.8
364 K, 6364.7 kPa, Liquid	796.1
366 K, 3226.1 kPa, Fluid (supercritical or subcritical phases)	699.8
366 K, 6895.5 kPa, Liquid	796
368 K, 3583.4 kPa, Fluid (supercritical or subcritical phases)	699.7
370 K, 1329.2 kPa, Gas	49.9
370 K, 2227.8 kPa, Gas	99.8
370 K, 3943.7 kPa, Fluid (supercritical or subcritical phases)	699.7
372 K, 4306.9 kPa, Fluid (supercritical or subcritical phases)	699.7
374 K, 4672.5 kPa, Fluid (supercritical or subcritical phases)	699.6
376 K, 5040.5 kPa, Fluid (supercritical or subcritical phases)	699.6
378 K, 5410 kPa, Fluid (supercritical or subcritical phases)	699.5
379 K, 3659.3 kPa, Gas	408.6
380 K, 1381.9 kPa, Gas	49.9
380 K, 2351.3 kPa, Gas	99.8
380 K, 3350.9 kPa, Gas	199.9
380 K, 3727.7 kPa, Gas	408.6
380 K, 5781.1 kPa, Fluid (supercritical or subcritical phases)	699.5
382 K, 6153.3 kPa, Fluid (supercritical or subcritical phases)	699.5
384 K, 6527.3 kPa, Fluid (supercritical or subcritical phases)	699.4
385 K, 3499.4 kPa, Gas	199.9
385 K, 4070.4 kPa, Gas	408.5
386 K, 6902.3 kPa, Fluid (supercritical or subcritical phases)	699.4
390 K, 1433.6 kPa, Gas	49.9
390 K, 2472.5 kPa, Gas	99.7
390 K, 3645.5 kPa, Gas	199.8
390 K, 4415.7 kPa, Gas	408.4
395 K, 3789.8 kPa, Gas	199.8
395 K, 4762.2 kPa, Gas	408.3
400 K, 1484.4 kPa, Gas	49.8
400 K, 2591.1 kPa, Gas	99.7
400 K, 3931.9 kPa, Gas	199.7
400 K, 5109.3 kPa, Gas	408.2
405 K, 4073 kPa, Gas	199.7
405 K, 5458.7 kPa, Gas	408.1
410 K, 1534.9 kPa, Gas	49.8
410 K, 2708 kPa, Gas	99.6
410 K, 4212.5 kPa, Gas	199.6
410 K, 5806.1 kPa, Gas	407.9
415 K, 4350.8 kPa, Gas	199.5
415 K, 6157.7 kPa, Gas	407.7
420 K, 1584.7 kPa, Gas	49.7
420 K, 2823 kPa, Gas	99.5
420 K, 4487.8 kPa, Gas	199.4
420 K, 6507.1 kPa, Gas	407.5
425 K, 4623.8 kPa, Gas	199.2
425 K, 6857.2 kPa, Gas	407.2
430 K, 1633.5 kPa, Gas	49.7
430 K, 2936 kPa, Gas	99.3
430 K, 4758.7 kPa, Gas	199.1

mass density
Details	Gas	Liquid
360.73 K	–	723.7 kg/m3
366.5 K	182.7 kg/m3	–
369.78 K	205.8 kg/m3	–
369.83 K	–	644 kg/m3
371.67 K	231.2 kg/m3	–
371.85 K	–	616.3 kg/m3
374.16 K	–	571.5 kg/m3
374.31 K	255.3 kg/m3	–
375.35 K	287.6 kg/m3	–
376.38 K	–	508.8 kg/m3
376.41 K	323.1 kg/m3	–
376.87 K	–	451.6 kg/m3
376.93 K	408.8 kg/m3 and 414.2 kg/m3	414.2 kg/m3
